In ChEMBL document CHEMBL1155606, “Stolonic acids A and B, new cytotoxic cyclic peroxides from an Indian Ocean ascidian Stolonica species” (J Nat Prod, 2000):
≈ marks a conversion by molar mass, not a printed value.

Tests used:
[1] = Cytotoxicity against human LOX cells after 48 hrs; type: functional, cell-based
[2] = test system: OVCAR-3; test: Cytotoxicity against human OVCAR-3 cells after 48 hrs; type: functional, cell-based; details: OVCAR-3, 48 h

Row | SMILES | IC50 [1] [µg/mL] | IC50 [2] [µg/mL]
1 | CCCC/C=C/C=C/CCCCCCCC[C@@H]1CC[C@@H]([C@@H]2CC[C@@H](CC(=O)O)OO2)O1 [STOLONIC ACID A] | 0.05 (≈ 0.115 µM) | 0.1 (≈ 0.229 µM)
2 | CCCC/C=C\C=C/CCCCCCCC[C@@H]1CC[C@@H]([C@@H]2CC[C@@H](CC(=O)O)OO2)O1 [STOLONIC ACID B] | 0.05 (≈ 0.115 µM) | 0.1 (≈ 0.229 µM)
